From ChEMBL document CHEMBL2034842, “Synthesis, anti-Candida activity, and cytotoxicity of new (4-(4-iodophenyl)thiazol-2-yl)hydrazine derivatives” (Eur J Med Chem, 2012)
≈ marks a conversion by molar mass, not a printed value.

What was measured:
Format in all cases: functional
[1] = tested on: Escherichia coli; assay: Antibacterial activity against Escherichia coli after 18 to 22 hrs by […]
[2] = tested on: Staphylococcus warneri; assay: Antibacterial activity against Staphylococcus warneri after 18 to 22 hrs by […]
[3] = tested on: Candida albicans; assay: Antifungal activity against 10 strains of Candida albicans after 24 hrs by […]
[4] = tested on: Enterococcus faecalis; assay: Antibacterial activity against Enterococcus faecalis after 18 to 22 hrs by […]
[5] = tested on: Proteus vulgaris; assay: Antibacterial activity against Proteus vulgaris after 18 to 22 hrs by […]
[6] = tested on: Streptococcus pyogenes; assay: Antibacterial activity against Streptococcus pyogenes after 18 to 22 hrs by […]
[7] = tested on: Nakaseomyces glabratus; assay: Antifungal activity against 4 strains of Candida glabrata after 24 hrs by […]
[8] = tested on: Klebsiella aerogenes; assay: Antibacterial activity against Enterobacter aerogenes after 18 to 22 hrs by […]
[9] = tested on: Staphylococcus aureus; assay: Antibacterial activity against Staphylococcus aureus after 18 to 22 hrs by […]
[10] = tested on: Klebsiella pneumoniae; assay: Antibacterial activity against Klebsiella pneumoniae after 18 to 22 hrs by […]
[11] = tested on: Candida tropicalis; assay: Antifungal activity against 4 strains of Candida tropicalis after 24 hrs by […]
[12] = tested on: Candida parapsilosis; assay: Antifungal activity against 4 strains of Candida parapsilosis after 24 hrs by […]; settings: Lodderomyces parapsilosis
[13] = tested on: Pichia kudriavzevii; assay: Antifungal activity against 3 strains of Candida krusei after 24 hrs by […]
[14] = tested on: [Candida] sake; assay: Antifungal activity against 2 strains of Candida sake after 24 hrs by […]; settings: Fermentozyma sake

Row | SMILES | MIC [1] [µg/mL] | MIC [2] [µg/mL] | MIC [3] [µg/mL] | MIC [4] [µg/mL] | MIC [5] [µg/mL] | MIC [6] [µg/mL] | MIC [7] [µg/mL] | MIC [8] [µg/mL] | MIC [9] [µg/mL] | MIC [10] [µg/mL] | MIC [11] [µg/mL] | MIC [12] [µg/mL] | MIC [13] [µg/mL] | MIC [14] [µg/mL]
1 | Ic1ccc(-c2csc(NN=C3CCCC3)n2)cc1 | > 128 | 8 (≈ 20.9 µM) | 2 (≈ 5.22 µM) | 8 (≈ 20.9 µM) | 32 (≈ 83.5 µM) | 8 (≈ 20.9 µM) | 2 (≈ 5.22 µM) | > 128 | 32 (≈ 83.5 µM) | > 128 | 0.5 (≈ 1.3 µM) | 2 (≈ 5.22 µM) | 2 (≈ 5.22 µM) | 32 (≈ 83.5 µM)
2 | Ic1ccc(-c2csc(NN=C3CCCCC3)n2)cc1 | > 128 | 32 (≈ 80.5 µM) | 0.5 (≈ 1.26 µM) | 32 (≈ 80.5 µM) | > 128 | 8 (≈ 20.1 µM) | 2 (≈ 5.03 µM) | > 128 | 32 (≈ 80.5 µM) | > 128 | 2 (≈ 5.03 µM) | 2 (≈ 5.03 µM) | 2 (≈ 5.03 µM) | 16 (≈ 40.3 µM)
3 | CC1CCCC/C1=N\Nc1nc(-c2ccc(I)cc2)cs1 (stereo not given) | 16 (≈ 38.9 µM) | 4 (≈ 9.72 µM) | 0.25 (≈ 0.608 µM) | 8 (≈ 19.4 µM) | > 128 | 8 (≈ 19.4 µM) | 2 (≈ 4.86 µM) | > 128 | 8 (≈ 19.4 µM) | 32 (≈ 77.8 µM) | 0.5 (≈ 1.22 µM) | 2 (≈ 4.86 µM) | 128 (≈ 311 µM) | 128 (≈ 311 µM)
4 | CC1CCC/C(=N\Nc2nc(-c3ccc(I)cc3)cs2)C1 (stereo not given) | > 128 | 4 (≈ 9.72 µM) | 2 (≈ 4.86 µM) | 8 (≈ 19.4 µM) | > 128 | 4 (≈ 9.72 µM) | 4 (≈ 9.72 µM) | > 128 | 32 (≈ 77.8 µM) | > 128 | 2 (≈ 4.86 µM) | 2 (≈ 4.86 µM) | 128 (≈ 311 µM) | 128 (≈ 311 µM)
5 | CC1CCC(=NNc2nc(-c3ccc(I)cc3)cs2)CC1 (stereo not given) | > 128 | 32 (≈ 77.8 µM) | 0.5 (≈ 1.22 µM) | 4 (≈ 9.72 µM) | > 128 | 2 (≈ 4.86 µM) | 2 (≈ 4.86 µM) | > 128 | 32 (≈ 77.8 µM) | > 128 | 2 (≈ 4.86 µM) | 2 (≈ 4.86 µM) | 64 (≈ 156 µM) | 64 (≈ 156 µM)
6 | Ic1ccc(-c2csc(NN=C3CCCCCC3)n2)cc1 | 16 (≈ 38.9 µM) | > 128 | 0.25 (≈ 0.608 µM) | 32 (≈ 77.8 µM) | 16 (≈ 38.9 µM) | 32 (≈ 77.8 µM) | 2 (≈ 4.86 µM) | 16 (≈ 38.9 µM) | > 128 | > 128 | 0.5 (≈ 1.22 µM) | 2 (≈ 4.86 µM) | 64 (≈ 156 µM) | 64 (≈ 156 µM)
7 | Ic1ccc(-c2csc(N/N=C/c3ccco3)n2)cc1 | 32 (≈ 81 µM) | > 128 | 0.5 (≈ 1.27 µM) | 32 (≈ 81 µM) | 16 (≈ 40.5 µM) | 32 (≈ 81 µM) | 4 (≈ 10.1 µM) | 32 (≈ 81 µM) | > 128 | 32 (≈ 81 µM) | 2 (≈ 5.06 µM) | 2 (≈ 5.06 µM) | 64 (≈ 162 µM) | 64 (≈ 162 µM)
8 | C/C(=N\Nc1nc(-c2ccc(I)cc2)cs1)c1ccco1 | > 128 | 32 (≈ 78.2 µM) | 0.25 (≈ 0.611 µM) | 8 (≈ 19.5 µM) | > 128 | 2 (≈ 4.89 µM) | 2 (≈ 4.89 µM) | > 128 | 32 (≈ 78.2 µM) | > 128 | 0.5 (≈ 1.22 µM) | 2 (≈ 4.89 µM) | 128 (≈ 313 µM) | 128 (≈ 313 µM)
9 | Ic1ccc(-c2csc(N/N=C/c3cccs3)n2)cc1 | > 128 | 32 (≈ 77.8 µM) | 2 (≈ 4.86 µM) | 32 (≈ 77.8 µM) | > 128 | 2 (≈ 4.86 µM) | 4 (≈ 9.73 µM) | > 128 | 32 (≈ 77.8 µM) | > 128 | 2 (≈ 4.86 µM) | 2 (≈ 4.86 µM) | 128 (≈ 311 µM) | 128 (≈ 311 µM)
10 | C/C(=N\Nc1nc(-c2ccc(I)cc2)cs1)c1cccs1 | > 128 | 32 (≈ 75.2 µM) | 2 (≈ 4.7 µM) | > 128 | > 128 | > 128 | 4 (≈ 9.4 µM) | > 128 | 32 (≈ 75.2 µM) | > 128 | 2 (≈ 4.7 µM) | 0.5 (≈ 1.18 µM) | 2 (≈ 4.7 µM) | 4 (≈ 9.4 µM)
